Laboratory results reported in ChEMBL document CHEMBL1155959, “Inhibitory effects of polymethoxy flavones isolated from Citrus reticulate on degranulation in rat basophilic leukemia RBL-2H3: enhanced inhibition by their combination” (Bioorg Med Chem, 2008).
Calls of active or inactive are those of the source. The rule behind the calls is not given here.

How the values were obtained:
RBL-2H3 [1] = assay: Suppression of degranulation in IgE-sensitized rat RBL-2H3 cells assessed as inhibition of antigen-stimulated histamine release after 30 mins in presence of dinitrophenylated bovine serum albumin; format: functional, cell-based
[2] = system: Radical scavenging activity; assay: Antioxidant activity assessed as DPPH radical scavenging activity; format: functional
[3] = molecular target: Mitogen-activated protein kinase 1 and 3 (ERK2 and ERK1) (Rattus norvegicus) (UniProt P63086+P21708); assay: Inhibition of ERK1/2 phosphorylation in antigen-stimulated rat RBL-2H3 cells at 50 uM by Western blot analysis in presence of dinitrophenylated bovine serum albumin; format: cell-based
Chain of Mitogen-activated protein kinase 1 and 3 (ERK2 and ERK1) (Rattus norvegicus) (P21708 whole entry, looked up): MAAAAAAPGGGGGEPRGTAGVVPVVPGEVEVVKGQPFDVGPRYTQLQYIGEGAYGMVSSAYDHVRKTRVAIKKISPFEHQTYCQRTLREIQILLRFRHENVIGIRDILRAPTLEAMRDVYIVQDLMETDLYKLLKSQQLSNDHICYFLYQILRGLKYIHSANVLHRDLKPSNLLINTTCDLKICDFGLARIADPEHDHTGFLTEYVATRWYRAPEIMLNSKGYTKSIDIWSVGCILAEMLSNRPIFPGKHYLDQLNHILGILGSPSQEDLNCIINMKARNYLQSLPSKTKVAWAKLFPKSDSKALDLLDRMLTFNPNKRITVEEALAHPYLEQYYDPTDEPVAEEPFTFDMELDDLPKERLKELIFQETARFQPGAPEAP
Chain of Mitogen-activated protein kinase 1 and 3 (ERK2 and ERK1) (Rattus norvegicus) (P63086 whole entry, looked up): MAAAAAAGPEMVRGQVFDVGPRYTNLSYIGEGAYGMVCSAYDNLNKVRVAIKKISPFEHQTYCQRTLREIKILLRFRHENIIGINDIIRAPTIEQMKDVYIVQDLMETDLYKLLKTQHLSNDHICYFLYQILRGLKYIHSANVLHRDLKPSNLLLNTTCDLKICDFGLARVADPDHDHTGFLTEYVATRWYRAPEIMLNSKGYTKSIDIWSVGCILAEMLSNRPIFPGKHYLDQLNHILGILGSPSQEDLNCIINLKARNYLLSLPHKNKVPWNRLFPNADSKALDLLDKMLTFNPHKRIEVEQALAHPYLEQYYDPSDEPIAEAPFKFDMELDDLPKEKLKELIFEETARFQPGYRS

RBL-2H3 [4] = assay: Inhibition of degranulation in IgE-sensitized rat RBL-2H3 cells assessed as inhibition of antigen-stimulated intracellular calcium elevation after 30 mins in presence of dinitrophenylated bovine serum albumin; format: functional, cell-based
RBL-2H3 [5] = assay: Suppression of degranulation in IgE-sensitized rat RBL-2H3 cells assessed as inhibition of A-23187-stimulated histamine release after 30 mins; format: functional, cell-based
[6] = molecular target: Mitogen-activated protein kinase 8 (Rattus norvegicus) (UniProt P49185); assay: Inhibition of JNK1/2 phosphorylation in antigen-stimulated rat RBL-2H3 cells at 50 uM by Western blot analysis in presence of dinitrophenylated bovine serum albumin; format: cell-based
Chain of Mitogen-activated protein kinase 8 (Rattus norvegicus) (P49185 whole entry): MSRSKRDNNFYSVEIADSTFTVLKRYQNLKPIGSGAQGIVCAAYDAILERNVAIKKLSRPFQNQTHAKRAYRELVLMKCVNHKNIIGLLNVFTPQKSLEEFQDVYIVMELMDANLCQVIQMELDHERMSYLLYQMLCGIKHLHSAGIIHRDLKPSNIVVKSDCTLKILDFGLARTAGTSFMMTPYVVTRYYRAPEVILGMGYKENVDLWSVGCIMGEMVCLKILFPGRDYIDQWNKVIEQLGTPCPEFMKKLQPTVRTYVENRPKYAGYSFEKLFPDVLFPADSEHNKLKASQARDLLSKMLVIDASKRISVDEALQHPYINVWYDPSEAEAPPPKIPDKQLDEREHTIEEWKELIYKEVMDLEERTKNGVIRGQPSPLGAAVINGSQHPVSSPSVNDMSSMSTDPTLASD

[7] = molecular target: T1, 1-phosphatidylinositol 4,5-bisphosphate phosphodiesterase gamma-1 (Rattus norvegicus) (UniProt P10686); assay: Inhibition of PLC-gamma-1/gamma-2 phosphorylation in antigen-stimulated rat RBL-2H3 cells at 50 uM by Western blot analysis in presence of dinitrophenylated bovine serum albumin; format: cell-based
T1 sequence (whole entry): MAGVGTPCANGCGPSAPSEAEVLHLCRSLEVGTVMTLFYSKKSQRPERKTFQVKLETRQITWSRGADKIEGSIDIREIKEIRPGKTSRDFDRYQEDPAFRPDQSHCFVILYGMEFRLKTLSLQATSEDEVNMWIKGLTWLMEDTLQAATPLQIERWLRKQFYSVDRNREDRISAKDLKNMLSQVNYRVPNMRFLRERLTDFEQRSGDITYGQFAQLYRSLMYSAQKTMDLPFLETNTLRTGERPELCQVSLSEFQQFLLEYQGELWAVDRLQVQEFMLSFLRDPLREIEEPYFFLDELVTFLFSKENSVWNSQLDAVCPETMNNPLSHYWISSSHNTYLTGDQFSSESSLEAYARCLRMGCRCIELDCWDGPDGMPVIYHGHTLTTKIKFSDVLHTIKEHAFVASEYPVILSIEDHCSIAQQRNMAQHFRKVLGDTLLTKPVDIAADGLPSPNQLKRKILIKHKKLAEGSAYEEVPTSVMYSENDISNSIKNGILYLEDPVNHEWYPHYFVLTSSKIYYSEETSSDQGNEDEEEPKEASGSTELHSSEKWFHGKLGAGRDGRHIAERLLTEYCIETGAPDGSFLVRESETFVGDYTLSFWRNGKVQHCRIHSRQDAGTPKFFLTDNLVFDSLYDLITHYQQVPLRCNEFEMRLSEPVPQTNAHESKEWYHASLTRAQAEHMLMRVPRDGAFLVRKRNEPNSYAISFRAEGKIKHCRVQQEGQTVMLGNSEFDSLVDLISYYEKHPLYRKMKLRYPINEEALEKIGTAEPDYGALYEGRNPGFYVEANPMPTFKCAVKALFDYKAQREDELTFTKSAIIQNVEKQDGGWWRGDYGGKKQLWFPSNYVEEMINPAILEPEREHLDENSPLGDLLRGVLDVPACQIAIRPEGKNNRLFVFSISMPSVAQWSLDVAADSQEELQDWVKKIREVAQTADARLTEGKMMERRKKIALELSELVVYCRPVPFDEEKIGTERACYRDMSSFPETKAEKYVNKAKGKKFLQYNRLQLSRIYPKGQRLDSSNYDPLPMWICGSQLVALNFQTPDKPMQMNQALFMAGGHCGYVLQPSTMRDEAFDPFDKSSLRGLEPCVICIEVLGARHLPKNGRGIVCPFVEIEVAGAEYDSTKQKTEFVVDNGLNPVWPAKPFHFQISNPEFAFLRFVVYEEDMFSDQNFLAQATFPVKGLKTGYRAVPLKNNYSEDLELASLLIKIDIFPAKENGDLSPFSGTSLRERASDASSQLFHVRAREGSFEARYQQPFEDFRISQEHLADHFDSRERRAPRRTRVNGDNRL

RBL-2H3 [8] = assay: Effect on antigen-stimulated intracellular ROS production in IgE-sensitized CM-H2DCF-DA-treated rat RBL-2H3 cells assessed as increase in 2',7'-dichlorofluorescein oxidation at 50 uM after 30 mins in presence of dinitrophenylated bovine serum albumin; format: functional, cell-based
[9] = molecular target: Tyrosine-protein kinase SYK (Rattus norvegicus) (UniProt Q64725); assay: Inhibition of Syk phosphorylation in antigen-stimulated rat RBL-2H3 cells at 50 uM by Western blot analysis in presence of dinitrophenylated bovine serum albumin; format: cell-based
Chain of Tyrosine-protein kinase SYK (Rattus norvegicus) (Q64725 whole entry, looked up): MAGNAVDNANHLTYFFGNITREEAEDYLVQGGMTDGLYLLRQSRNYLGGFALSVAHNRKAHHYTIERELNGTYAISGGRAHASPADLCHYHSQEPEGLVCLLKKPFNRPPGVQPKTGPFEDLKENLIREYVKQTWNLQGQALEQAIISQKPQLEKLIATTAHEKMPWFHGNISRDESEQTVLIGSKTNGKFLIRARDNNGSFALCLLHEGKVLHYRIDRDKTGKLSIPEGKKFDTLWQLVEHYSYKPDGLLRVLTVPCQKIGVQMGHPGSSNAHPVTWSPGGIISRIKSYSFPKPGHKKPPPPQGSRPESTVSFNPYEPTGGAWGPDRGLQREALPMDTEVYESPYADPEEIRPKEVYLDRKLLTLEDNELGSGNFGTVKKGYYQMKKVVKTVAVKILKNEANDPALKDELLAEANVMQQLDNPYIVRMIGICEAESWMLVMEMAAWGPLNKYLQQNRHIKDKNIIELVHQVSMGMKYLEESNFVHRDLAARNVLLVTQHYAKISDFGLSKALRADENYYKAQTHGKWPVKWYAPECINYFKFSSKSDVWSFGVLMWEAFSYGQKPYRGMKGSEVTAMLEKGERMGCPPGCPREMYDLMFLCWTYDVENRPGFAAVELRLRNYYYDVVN

RBL-2H3 [10] = assay: Inhibition of p38 MAPK phosphorylation in antigen-stimulated rat RBL-2H3 cells at 50 uM by Western blot analysis in presence of dinitrophenylated bovine serum albumin; format: cell-based
[11] = molecular target: Tyrosine-protein kinase Lyn (Rattus norvegicus) (UniProt Q07014); assay: Inhibition of Lyn phosphorylation in antigen-stimulated rat RBL-2H3 cells at 50 uM by Western blot analysis in presence of dinitrophenylated bovine serum albumin; format: cell-based
Chain of Tyrosine-protein kinase Lyn (Rattus norvegicus) (Q07014 whole entry): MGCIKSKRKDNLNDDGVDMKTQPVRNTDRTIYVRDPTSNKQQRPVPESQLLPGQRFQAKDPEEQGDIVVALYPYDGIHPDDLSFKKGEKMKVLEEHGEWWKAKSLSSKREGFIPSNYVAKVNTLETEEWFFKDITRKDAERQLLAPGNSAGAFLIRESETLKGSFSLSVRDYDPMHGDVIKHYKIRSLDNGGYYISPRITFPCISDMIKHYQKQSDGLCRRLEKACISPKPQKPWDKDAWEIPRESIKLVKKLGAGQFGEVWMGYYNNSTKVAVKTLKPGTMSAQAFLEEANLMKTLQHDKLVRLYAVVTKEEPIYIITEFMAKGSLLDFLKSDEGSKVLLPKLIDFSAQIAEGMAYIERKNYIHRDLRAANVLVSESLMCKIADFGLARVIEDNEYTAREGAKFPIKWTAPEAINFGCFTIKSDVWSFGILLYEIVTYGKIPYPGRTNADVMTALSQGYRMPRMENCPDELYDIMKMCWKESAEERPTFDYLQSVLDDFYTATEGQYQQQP

Row | Compound | Activity (RBL-2H3 [1]) | ED50 [2] [µM] | Activity [3] | Activity (RBL-2H3 [4]) | Activity (RBL-2H3 [5]) | Activity [6] | Activity [7] | Activity (RBL-2H3 [8]) | Activity [9] | Activity (RBL-2H3 [10]) | Activity [11]
1 | COc1ccc(-c2cc(=O)c3c(O)c(OC)c(OC)cc3o2)cc1OC | Dose-dependent effect | < 100 | Active | Active | Active | inactive | Active | Active | Active | inactive | inactive
2 | COc1cc(-c2cc(=O)c3c(OC)c(OC)c(OC)cc3o2)cc(OC)c1OC | Dose-dependent effect | < 100 | Active | inactive | Active | inactive | Active | Active | Active | inactive | inactive
3 | O=C(O[C@@H]1Cc2c(O)cc(O)cc2O[C@@H]1c1cc(O)c(O)c(O)c1)c1cc(O)c(O)c(O)c1 |  | 7 |  |  |  |  |  |  |  |  | 
4 | COc1ccc(OC)c(-c2cc(=O)c3c(OC)c(OC)cc(OC)c3o2)c1 | Dose-dependent effect | < 100 | Active | Active | Active | inactive | Active | Active | Active | inactive | inactive
5 | O=C1O[C@H]([C@@H](O)CO)C(O)=C1O |  | 18 |  |  |  |  |  |  |  |  | 
6 | VITAMIN E |  | 78 |  |  |  |  |  |  |  |  | 
